Measured values published in PMC11943097, “Phytochemical Characterization and Anticancer Activity of Clerodendrum chinense Leaf Extract Against Breast and Cervical Cancer Cells” (International Journal of Molecular Sciences, 2025).
In brackets after ≈: the same amount, converted by molar mass. Read-outs that look alike come from different tables or passages of the source.

What was measured:
Assay type in all cases: cell-based
[1] = system: RAW 264.7 macrophages; assay: MTT cell viability assay, RAW264.7 cells; settings: Mus musculus
Protocol: (§1) MCF-7, HeLa, and RAW264.7 cells were cultured in DMEM supplemented with 10% FBS and 1% penicillin/streptomycin. Cell culture was maintained at 37 °C in a 5% CO2 incubator.
(§2) The assessment of cell viability was performed using an MTT assay to assess the cytotoxic effects of CCL on MCF-7, Hela, and RAW264.7 cells. Initially, MCF-7, HeLa, and RAW264.7 cells were seeded onto 96-well plates at a density of 2 × 10^4 cells/mL. Following a 24-h incubation period, the culture medium was replaced with a serum-free medium containing specified concentrations of CCL, verbascoside, isoverbascoside, and hispidulin ranging from 12.5 to 1000 µg/mL. Following 24, 48, and 72 h of treatment, an MTT solution (0.5 mg/mL in culture medium) was added to each well and incubated at 37 °C for 2 h. The metabolically active cells converted MTT into formazan crystals, which were then dissolved in 100 µL of DMSO per well. Absorbance was recorded at 550 nm using a SpectraMax 3 microplate reader (Molecular Devices, San Jose, CA, USA). The IC50 values were determined using GraphPad Prism v.7.0 (La Jolla, CA, USA). Cell viability was assessed in comparison to untreated control cells using the following equation: Cell viability %=A550sample/A550control×100%

[2] = system: HeLa cells; assay: MTT cell viability assay, HeLa cells; settings: Homo sapiens
Protocol: as §1, §2

[3] = system: MCF-7 cells; assay: MTT cell viability assay, MCF-7 cells; settings: Homo sapiens
Protocol: as §1, §2

IC50 ([2]; 24 h, MTT, read-out: IC50) | IC50 ([2]; 48 h, MTT, read-out: IC50) | IC50 ([2]; 72 h, MTT, read-out: IC50) | IC50 ([3]; MCF7, MCF-7, 24 h, MTT, read-out: IC50) | IC50 ([3]; MCF7, MCF-7, 48 h, MTT, read-out: IC50) | IC50 ([3]; MCF7, MCF-7, 72 h, MTT, read-out: IC50) | SMILES | IC50 ([1]; RAW264.7, RAW 264.7, 24 h, MTT, read-out: IC50) | IC50 ([1]; RAW264.7, RAW 264.7, 48 h, MTT, read-out: IC50) | IC50 ([1]; RAW264.7, RAW 264.7, 72 h, MTT, read-out: IC50) | IC50 ([1]; RAW264.7, 24 h) | IC50 ([1]; RAW264.7, 48 h) | IC50 ([1]; RAW264.7, 72 h) | IC50 ([2]; 24 h) | IC50 ([2]; 48 h) | IC50 ([2]; 72 h) | IC50 ([3]; MCF7, 24 h) | IC50 ([3]; MCF7, 48 h) | IC50 ([3]; MCF7, 72 h)
373 µg/mL (≈ 597 µM) | 291 µg/mL (≈ 466 µM) | 342 µg/mL (≈ 547 µM) | 186 µg/mL (≈ 297 µM) | 184 µg/mL (≈ 294 µM) | 173 µg/mL (≈ 277 µM) | C[C@@H]1O[C@@H](O[C@@H]2[C@@H](O)[C@H](OCCc3ccc(O)c(O)c3)O[C@H](CO)[C@H]2OC(=O)/C=C/c2ccc(O)c(O)c2)[C@H](O)[C@H](O)[C@H]1O [Verbascoside] | 432 µg/mL (≈ 691 µM) | 446 µg/mL (≈ 714 µM) | 480 µg/mL (≈ 769 µM) |  |  |  |  |  |  |  |  | 
 |  |  |  |  |  | COc1c(O)cc2oc(-c3ccc(O)cc3)cc(=O)c2c1O [Hispidulin] |  |  |  | 99.2 µg/mL (≈ 330 µM) | 120 µg/mL (≈ 401 µM) | 180 µg/mL (≈ 600 µM) | 98.2 µg/mL (≈ 327 µM) | 119 µg/mL (≈ 397 µM) | 311 µg/mL (≈ 1040 µM) | 905 µg/mL (≈ 3010 µM) | 710 µg/mL (≈ 2370 µM) | 527 µg/mL (≈ 1760 µM)
